Key:
Format in all cases: biochemical
[1] = biological target: T1, MMP-9 (Homo sapiens, UniProt P14780); experiment: Automated MMP Profiling Assay, MMP-9 fluorogenic; conditions: for IC50: 96-well automated, P218
T1 construct: from tissue; host or cells: human polymorphonuclear leukocytes (PMN) from whole blood (New York Blood Center), PMA-stimulated supernatant
Description: Briefly, polymorphonuclear leukocytes (PMN) preparations were isolated as described above from 3 or more units of freshly drawn whole blood obtained from the New York Blood Center (New York, N.Y.). Cells were resuspended in phosphate buffered saline (PBS) containing 100 ng/ml phorbol myristate acetate (PMA) in the presence of 50 mM diisopropylfluorophospate (DFP), 1 μg/ml leupeptin and aprotinin, and 1 mg/ml catalase for 1 hr at 37° C. Supernatants were collected by centrifugation (300×g) and the samples were frozen at -70° C. All chromatographic methods were performed at 4° C. Thawed samples were concentrated 5-fold using an Amicon chamber equipped with a YM-10 membrane. The concentrate was pressure dialyzed against 0.02M Tris-HCl, 0.1M NaCl, 1 mM CaCl2, 1 μM ZnCl2, 0.001% Brij-35, 0.02% sodium azide (NaN3), pH 7.5 and applied to DEAE ion exchange chromatography resin which was previously equilibrated with the same buffer at a flow rate of 0.4 ml/min. The column was extensively washed with the same buffer and gelatinase was eluted as 4 ml fractions from the column with 0.02M Tris-HCl, 0.5M NaCl, 1 mM CaCl2, 1 μM ZnCl2, 0.001% Brij-35, 0.02% NaN3, pH 7.5. Gelatinase containing fractions were observed by gelatin zymography (see below), loaded onto a gelatin agarose affinity resin and washed with the same buffer. Gelatinase activity was eluted at a flow rate of 1 ml/min from the column as 1 ml fractions with 0.02M Tris-HCl, 1M NaCl, 1 mM CaCl2, 1 μM ZnCl2, 0.001% Brij-35, 0.02% NaN3, pH 7.5 containing 10% dimethyl sulfoxide (DMSO). The fractions containing gelatinase activity were pooled and dialyzed against 0.005M Tris-HCl, 5 mM NaCl, 0.5 mM CaCl2, 0.1 μM ZnCl2, 0.001% Brij-35, pH 7.4. The protein content associated with material was determined with a micro-BCA assay (Pierce, Rockford, Ill.), lyophilized and reconstituted to a desired working concentration (100 μg/ml).
This assay was run with a protocol analogous to that reported for MMP-3 inhibition using the synthetic peptide P218 and each of the three enzymes and measuring quenched fluorescence. This assay with each invention compound was run with the three enzymes MMP-3, MMP-9 and MMP-2 in parallel as adapted for a 96-well microtitre plate using a Hamilton A® workstation.

[2] = biological target: T2, MMP-3 (Homo sapiens, UniProt P08254); experiment: Automated MMP Profiling Assay, MMP-3 fluorogenic; conditions: for IC50: 96-well automated, P218
T2 construct: Truncated Prostromelysin-257 was expressed in a soluble form in E.coli; made in house; host or cells: E. coli
T2 sequence (P08254 100-274 limits assumed): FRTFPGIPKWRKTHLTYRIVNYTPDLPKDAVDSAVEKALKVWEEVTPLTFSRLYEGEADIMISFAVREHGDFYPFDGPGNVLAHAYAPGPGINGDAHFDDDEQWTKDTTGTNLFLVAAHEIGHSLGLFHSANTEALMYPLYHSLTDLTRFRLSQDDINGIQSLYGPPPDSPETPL
From the text: This assay with each invention compound was run with the three enzymes MMP-3, MMP-9 and MMP-2 in parallel as adapted for a 96-well microtitre plate using a Hamilton A® workstation.

[3] = biological target: T3, MMP-2 (Homo sapiens, UniProt P08253); experiment: Automated MMP Profiling Assay, MMP-2 fluorogenic; conditions: for IC50: 96-well automated, P218, read-out: MMP-2 Fluorogenic IC50 (profiling)
T3 sequence (P08253 110-660): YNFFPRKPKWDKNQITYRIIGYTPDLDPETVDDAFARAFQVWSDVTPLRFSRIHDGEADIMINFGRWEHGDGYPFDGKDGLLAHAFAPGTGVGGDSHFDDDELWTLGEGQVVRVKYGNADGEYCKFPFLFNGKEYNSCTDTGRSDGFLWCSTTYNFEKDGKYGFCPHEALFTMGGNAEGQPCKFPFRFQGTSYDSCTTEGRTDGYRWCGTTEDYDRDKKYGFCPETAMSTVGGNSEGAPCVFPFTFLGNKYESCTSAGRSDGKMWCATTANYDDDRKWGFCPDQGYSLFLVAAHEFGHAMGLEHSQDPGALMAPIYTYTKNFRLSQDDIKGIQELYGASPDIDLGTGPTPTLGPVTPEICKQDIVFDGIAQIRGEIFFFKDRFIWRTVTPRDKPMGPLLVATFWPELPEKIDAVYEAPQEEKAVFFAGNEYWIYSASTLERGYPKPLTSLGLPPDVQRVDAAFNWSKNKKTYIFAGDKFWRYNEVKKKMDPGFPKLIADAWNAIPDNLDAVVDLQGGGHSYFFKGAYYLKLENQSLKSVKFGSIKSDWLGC

[4] = biological target: T1, MMP-9; experiment: Thiopeptilide MMP-9 Inhibition Assay; conditions: pH 6.5; x (n) = average of n determinations; read-out: MMP-9: Thiopep. IC50

T1 sequence (P14780 107-707 limits assumed): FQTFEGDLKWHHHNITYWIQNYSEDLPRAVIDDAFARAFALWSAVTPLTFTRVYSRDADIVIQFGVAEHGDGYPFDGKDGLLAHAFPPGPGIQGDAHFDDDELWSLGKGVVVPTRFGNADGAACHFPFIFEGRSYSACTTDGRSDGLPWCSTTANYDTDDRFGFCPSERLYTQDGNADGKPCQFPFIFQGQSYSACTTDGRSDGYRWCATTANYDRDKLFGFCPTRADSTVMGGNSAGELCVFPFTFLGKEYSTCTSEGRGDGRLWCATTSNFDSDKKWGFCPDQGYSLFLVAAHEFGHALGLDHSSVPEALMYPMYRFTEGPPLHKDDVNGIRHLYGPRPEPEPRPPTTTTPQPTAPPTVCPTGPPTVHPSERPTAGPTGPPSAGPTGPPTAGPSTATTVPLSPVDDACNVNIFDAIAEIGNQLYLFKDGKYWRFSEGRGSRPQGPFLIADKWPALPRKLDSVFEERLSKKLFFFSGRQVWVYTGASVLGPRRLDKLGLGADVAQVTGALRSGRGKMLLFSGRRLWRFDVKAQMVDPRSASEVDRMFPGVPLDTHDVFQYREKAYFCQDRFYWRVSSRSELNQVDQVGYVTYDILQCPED

Structure (SMILES)	IC50 [1] [nM]	IC50 [2] [nM]	IC50 [3] [nM]	inhibition at 5 µM [1] [%]	inhibition at 5 µM [2] [%]	inhibition at 5 µM ([3]; at 5 μM) [%]	IC50 [4] [nM]
O=C(CC(CCNC(=O)c1ccccc1C(=O)O)C(=O)O)c1ccc(-c2ccc(Cl)cc2)cc1 (stereo not drawn) [Example 279, [1,1'-Biphenyl]-4-butanoic acid, α-[2-[(2-carboxybenzoyl)amino]ethyl]-4'-chloro-γ-oxo-]	286	402	67	–	–	–	–
COc1cc(CCC(CC(=O)c2ccc(-c3ccc(Cl)cc3)cc2)C(=O)O)cc(OC)c1 (stereo not drawn) [Example 129, [1,1'-Biphenyl]-4-butanoic acid, 4'-chloro-α-[2-(3,5-dimethoxyphenyl)ethyl]-γ-oxo-]	771	237	89	–	–	–	–
CC(=O)O[C@@H]1C[C@H](C(=O)c2ccc(-c3ccc(Cl)cc3)cc2)[C@H]1C(=O)O (relative stereo) [Example 396, Cyclobutanecarboxylic acid, 2-(acetyloxy)-4-[(4'-chloro[1,1'-biphenyl]-4-yl)carbonyl]-, (1α,2β,4β)-]	2290	779	362	–	–	–	–
Cc1ccc2c(c1)C(=O)N(CCC(CC(=O)c1ccc(-c3ccc(Cl)cc3)cc1)C(=O)O)C2=O (stereo not drawn) [Example 416, 2H-Isoindole-2-butanoic acid, α[2-(4'-chloro[1,1'-biphenyl]-4-yl)-2-oxoethyl]-1,3-dihydro-5-methyl-1,3-dioxo-]	2.5	9.5	23	–	–	–	–
CCCSC[C@@H]1CC[C@H](C(=O)c2ccc(-c3ccc(Cl)cc3)cc2)[C@H]1C(=O)O (relative stereo) [Example 374, Cyclopentanecarboxylic acid, 2-[(4'-chloro[1,1'-biphenyl]-4-yl)carbonyl]-5-[(propylthio)methyl]-, (1α,2β,5β)-]	271	54	34	–	–	–	–
COC(=O)c1cccc(SCC(CC(=O)c2ccc(-c3ccc(Cl)cc3)cc2)C(=O)O)c1 (stereo not drawn) [Example 432, [1,1'-Biphenyl]-4-butanoic acid, 4'-chloro-α-[[[3-(methoxycarbonyl)phenyl]thio]methyl]-γ-oxo-]	> 1250	1600	236	–	–	–	–
O=C(CC(CCCc1ccccc1)C(=O)O)c1ccc(-c2cccnc2)cc1 (stereo not drawn) [Example 70, Benzenepentanoic acid, α-[2-oxo-2-[4-(3-pyridinyl)phenyl]ethyl]-]	–	–	1750	7	44	–	–
O=C(O)[C@H]1[C@H](CN2C(=O)c3ccccc3C2=O)CC[C@@H]1C(=O)c1ccc(-c2ccc(Cl)cc2)cc1 (relative stereo) [Example 360, trans-5-[4-(4-chlorophenyl)phenylcarbonyl]-trans-2-phthalimidomethylcyclopentanecarboxylic acid]	0.93	5.46	1.46	–	–	–	–
Nc1cccc2c1C(=O)N(C[C@@H]1CC[C@H](C(=O)c3ccc(-c4ccc(Cl)cc4)cc3)[C@H]1C(=O)O)C2=O (relative stereo) [Example 392, Cyclopentanecarboxylic acid, 2-[(4-amino-1,3-dihydro-1,3-dioxo-2H-isoindol-2-yl)methyl]-5-[(4'-chloro[1,1'-biphenyl]-4-yl)carbonyl]-, (1α,2β,5β)-]	–	2.5	–	–	–	–	–
COC(=O)c1ccccc1SC[C@@H]1CC[C@H](C(=O)c2ccc(-c3ccc(Cl)cc3)cc2)[C@H]1C(=O)O (relative stereo) [Example 376, Benzoic acid, 2-[[[2-carboxy-3-[(4'-chloro[1,1'-biphenyl]-4-yl)carbonyl]cyclopentyl]methyl]thio]-, 1-methyl ester, (1α,2β,3α)0]	95	46	34	–	–	–	–
CCCCCCOc1ccc(-c2ccc(C(=O)CC(CCc3ccccc3)C(=O)O)cc2)cc1 (stereo not drawn) [Example 159, [1,1'-Biphenyl]-4-butanoic acid, 4'-(hexyloxy)-γ-oxo-α-(2-phenylethyl)-]	> 1250	116	42	–	–	–	–
CCCCNC(=O)c1ccc(CCC(CC(=O)c2ccc(-c3ccc(Cl)cc3)cc2)C(=O)O)cc1 (stereo not drawn) [Example 152, [1,1'-Biphenyl]-4-butanoic acid, α-[2-[4-[(butylamion)carbonyl]phenyl]ethyl]-4'-chloro-γ-oxo-]	597	367	210	–	–	–	–
CCN(CC)C(=O)c1cccc(CC[C@H](CC(=O)c2ccc(-c3ccc(Cl)cc3)cc2)C(=O)O)c1 [Example 146]	2710	2400	538	–	–	–	–
O=C(O)[C@H]1[C@H](CON2C(=O)c3ccccc3C2=O)CC[C@@H]1C(=O)c1ccc(-c2ccc(Cl)cc2)cc1 (relative stereo) [Example 389, Cyclopentanecarboxylic acid, 2-[(4'-chloro[1,1'-biphenyl]-4-yl)carbonyl]-5-[[(1,3-dihydro-1,3-dioxo-2H-isoindol-2-yl)oxy]methyl]-, (1α,2β,5β)-]	23	15	6.3	–	–	–	–
CCCCCOc1ccc(-c2ccc(C(=O)C[C@@H](CCCc3ccccc3)C(=O)O)cc2)cc1 [Example 87, 4-[4-(4-pentyloxyphenyl)phenyl]-4-oxo-2R-(3-phenylpropyl)butanoic acid]	–	–	–	0	8	40	–
O=C(CC(CCCCN1C(=O)c2ccccc2C1=O)C(=O)O)c1ccc(-c2ccc(Cl)cc2)cc1 (stereo not drawn) [Example 431, 2H-Isoindole-2-hexanoic acid, α[2-(4'-chloro[1,1'-biphenyl]-4-yl)-2-oxoethyl]-1,3-dihydro-1,3-dioxo-]	50	38	16	–	–	–	–
O=C(CC(CCCc1ccccc1)C(=O)O)c1ccc(-c2ccc(CCc3ccccc3)cc2)cc1 (stereo not drawn) [Example 359, [1,1'-Biphenyl]-4-butanoic acid, 4'-γ-oxo-4'-(2-phenylethyl)-α-(3-phenylpropyl)-]	–	83	51	16	–	–	–
CCCCCOc1ccc(-c2ccc(C(=O)[C@@H]3CC[C@H](Cc4ccccc4)[C@H]3C(=O)O)cc2)cc1 [Example 325, Cyclopentanecarboxylic acid, 2-[[4'-(pentyloxy)[1,1'-biphenyl]-4-yl]carbonyl]-5-(phenylmethyl)-, [1R-(1α,2β,5β)]-]	–	–	4400	0	10	–	–
O=C(O)[C@H]1[C@H](CSc2nc3ccccc3o2)CC[C@@H]1C(=O)c1ccc(-c2ccc(Cl)cc2)cc1 (relative stereo) [Example 384, Cyclopentanecarboxylic acid, 2-[(2-benzoxazolylthio)methyl]-5-[(4'-chloro[1,1'-biphenyl]-4-yl)carbonyl]-, (1α,2β,5β)-]	167	129	78	–	–	–	–
O=C(CC(CSc1ccccc1)C(=O)O)c1ccc(-c2ccc(Cl)cc2)cc1 (stereo not drawn) [Example 196, 4-[4-(4-chlorophenyl)phenyl]-4-oxo-2-(phenylthiomethyl)butanoic acid]	955	–	37	–	–	–	438
O=C(CC(CCN1C(=O)[C@H]2CC=CC[C@H]2C1=O)C(=O)O)c1ccc(-c2ccc(Cl)cc2)cc1 (relative stereo) [Example 413, 2H-Isoindole-2-butanoic acid, α-[2-(4'-chloro[1,1'-biphenyl]-4-yl)-2-oxoethyl]-1,3,3a,4,7,7a-hexahydro-1,3-dioxo-, cis-]	109	39	–	–	–	–	–
